Some results are limits rather than exact numbers.

The target of the experiment is T1, human IDO1 (Homo sapiens, UniProt P14902).
T1 construct: expressed in transfected cells
T1 sequence (P14902 whole entry): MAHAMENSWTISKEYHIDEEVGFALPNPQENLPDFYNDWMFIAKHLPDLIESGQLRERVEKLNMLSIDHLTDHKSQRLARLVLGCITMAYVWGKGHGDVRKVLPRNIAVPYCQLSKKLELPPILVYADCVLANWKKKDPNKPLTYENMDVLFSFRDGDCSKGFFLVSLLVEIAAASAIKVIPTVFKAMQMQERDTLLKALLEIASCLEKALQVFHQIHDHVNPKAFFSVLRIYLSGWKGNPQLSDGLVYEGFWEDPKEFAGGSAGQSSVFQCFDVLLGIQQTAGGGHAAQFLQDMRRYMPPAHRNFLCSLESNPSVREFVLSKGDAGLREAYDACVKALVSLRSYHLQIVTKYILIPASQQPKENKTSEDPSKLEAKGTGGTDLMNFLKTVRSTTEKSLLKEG
The experiment is described as follows: HEK293 human IDO1 cell-based IDO inhibition assay. The note with it: read-out: HEK Human IDO-1 Potency. Here is the method: 1HEK293 cells were transfected with a pCDNA-based mammalian expression vector harboring human IDO1 cDNA (NM 002164.2) by electroporation. They were cultured in medium (DMEM with 10% FBS) containing 1 mg/ml G418 for two weeks. Clones of HEK293 cells that stably expressed human IDO1 protein were selected and expanded for IDO inhibition assay.
The human IDOL/HEK293 cells were seeded at 10,000 cells per 50 μL per well with RPMI/phenol red free media contains 10% FBS in a 384-well black wall clear bottom tissue culture plate (Matrix Technologies LLC) 100 nL of certain concentration of compound was then added to each well using ECHO liquid handling systems. The cells were incubated for 20 hours in 37° C. incubator with 5% CO2.
The compound treatments were stopped by adding Trichloroacetic Acid (Sigma-Aldrich) to a final concentration at 0.2%. The cell plate was further incubated at 50° C. for 30 minute. The equal volume supernatant (20 μL) and 0.2% (w/v) Ehrlich reagent (4-dimethylaminobenzaldehyde, Sigma-Aldrich) in glacial acetic acid were mixed in a new clear bottom 384-well plate. This plate was then incubated at room temperature for 30 minute. The absorbance at 490 nm was measured on Envision plate reader.
Take `CCOc1ccccc1NC(=O)[C@H](C)[C@H]1CC[C@@H](c2ccnc3ccc(F)cc32)CC1` [Example 62, (R)-N-(2-ethoxyphenyl)-2-((cis)-4-(6-fluoroquinolin-4-yl)cyclohexyl)propanamide]: the IC50 was less than 0.25 µM. The figure for `Cc1cc(Cl)ccc1NC(=O)[C@H](C)[C@H]1CC[C@@H](c2ccnc3ccc(F)cc32)CC1` [Example 64, (R)-N-(4-chloro-2-methylphenyl)-2-((cis)-4-(6-fluoroquinolin-4-yl)cyclohexyl)propanamide] is less than 0.25 µM. For `C[C@@H](C(=O)Nc1cccc(Cl)c1)[C@H]1CC[C@@H](c2ccnc3ccc(F)cc32)CC1` [Example 65, (R)-N-(3-chloropehnyl)-2-((cis)-4-(6-fluoroqinolin-4-yl)cyclohexyl)propanamide], the IC50 was less than 0.05 µM. Next, `C[C@@H](C(=O)Nc1ccc(Cl)c(Cl)c1)[C@H]1CC[C@@H](c2ccnc3ccc(F)cc32)CC1` [Example 66, (R)-N-(3,4-dichlorophenyl)-2-((cis)-4-(6-fluoroquinolin-4-yl)cyclohexyl)propanamide]: less than 0.05 µM; `COC(=O)c1cccc(NC(=O)[C@H](C)[C@H]2CC[C@@H](c3ccnc4ccc(F)cc43)CC2)c1` [Example 67, methyl 3-((R)-2-((cis)-4-(6-fluoroquinolin-4-yl)cyclohexyl)propanamido)benzoate]: less than 0.05 µM. The figure for `COC(=O)c1ccc(NC(=O)[C@H](C)[C@H]2CC[C@@H](c3ccnc4ccc(F)cc43)CC2)cc1` [Example 68, methyl 4-((R)-2-((cis)-4-(6-fluoroquinolin-4-yl)cyclohexyl)propanamido)benzoate] is less than 0.05 µM; for `C[C@@H](C(=O)N(C)c1ccccc1)[C@H]1CC[C@@H](c2ccnc3ccc(F)cc32)CC1` [Example 69, (R)-2-((cis)-4-(6-fluoroquinolin-4-yl)cyclohexyl)-N-methyl-N-phenylpropanamide] it is more than 0.25 µM; for `C[C@@H](C(=O)Nc1cccc(C(F)(F)F)c1)[C@H]1CC[C@@H](c2ccnc3ccc(F)cc32)CC1` [Example 70, (R)-2-((cis)-4-(6-fluoroquinolin-4-yl)cyclohexyl)-N-(3-(trifluoromethyl)phenyl)propanamide] it is less than 0.05 µM.

With `C[C@@H](C(=O)Nc1ccc(Oc2ccccc2)cc1)[C@H]1CC[C@@H](c2ccnc3ccc(F)cc32)CC1` [Example 71, (R)-2-((cis)-4-(6-fluoroquinolin-4-yl)cyclohexyl)-N-(4-phenoxyphenyl)propanamide], the IC50 was less than 0.05 µM.

In the case of `Cc1cccc(NC(=O)[C@H](C)[C@H]2CC[C@@H](c3ccnc4ccc(F)cc43)CC2)c1` [Example 72, (R)-2-((cis)-4-(6-fluoroquinolin-4-yl)cyclohexyl)-N-(m-tolyl)propanamide], the IC50 is less than 0.05 µM. The figure for `C[C@@H](C(=O)Nc1cccc(Oc2ccccc2)c1)[C@H]1CC[C@@H](c2ccnc3ccc(F)cc32)CC1` [Example 73, (R)-2-((cis)-4-(6-fluoroquinolin-4-yl)cyclohexyl)-N-(3-phenoxyphenyl)propanamide] is less than 0.25 µM. Next, `C[C@@H](C(=O)Nc1ccccc1Oc1ccccc1)[C@H]1CC[C@@H](c2ccnc3ccc(F)cc32)CC1` [Example 73a, (R)-2-((cis)-4-(6-fluoroquinolin-4-yl)cyclohexyl)-N-(2-phenoxyphenyl)propanamide]: more than 0.25 µM. The figure for `C[C@@H](C(=O)Nc1ccncc1)[C@H]1CC[C@@H](c2ccnc3ccc(F)cc32)CC1` [Example 74, (R)-2-((cis)-4-(6-fluoroquinolin-4-yl)cyclohexyl)-N-(pyridin-4-yl)propanamide] is less than 0.05 µM. `C[C@@H](C(=O)Nc1nccs1)[C@H]1CC[C@@H](c2ccnc3ccc(F)cc32)CC1` [Example 75, (R)-2-((cis)-4-(6-fluoroquinolin-4-yl)cyclohexyl)-N-(thiazol-2-yl)propanamide]: the IC50 was less than 0.25 µM. Next, `C[C@@H](C(=O)Nc1cccnc1)[C@H]1CC[C@@H](c2ccnc3ccc(F)cc32)CC1` [Example 76, (R)-2-((cis)-4-(6-fluoroquinolin-4-yl)cyclohexyl)-N-(pyridin-3-yl)propanamide]: less than 0.05 µM; `C[C@@H](C(=O)Nc1ccccc1F)[C@H]1CC[C@@H](c2ccnc3ccc(F)cc32)CC1` [Example 77, (R)-N-(2-fluorophenyl)-2-((cis)-4-(6-fluoroquinolin-4-yl)cyclohexyl)propanamide]: less than 0.05 µM; `CCOc1ccc(NC(=O)[C@H](C)[C@H]2CC[C@@H](c3ccnc4ccc(F)cc43)CC2)cc1` [Example 78, (R)-N-(4-ethoxyphenyl)-2-((cis)-4-(6-fluoroquinolin-4-yl)cyclohexyl)propanamide]: less than 0.05 µM. The figure for `C[C@@H](C(=O)Nc1cccc(C#N)c1)[C@H]1CC[C@@H](c2ccnc3ccc(F)cc32)CC1` [Example 79, (R)-N-(3-cyanophenyl)-2-((cis)-4-(6-fluoroquinolin-4-yl)cyclohexyl)propanamide] is less than 0.25 µM; for `Cc1ccc(NC(=O)[C@H](C)[C@H]2CC[C@@H](c3ccnc4ccc(F)cc43)CC2)cc1Cl` [Example 80, (R)-N-(3-chloro-4-methylphenyl)-2-((cis)-4-(6-fluoroquinolin-4-yl)cyclohexyl)propanamide] it is less than 0.05 µM. Next, `C[C@@H](C(=O)Nc1ccc(C(F)(F)F)c(C#N)c1)[C@H]1CC[C@@H](c2ccnc3ccc(F)cc32)CC1` [Example 82, (R)—N-(3-Cyano-4-(trifluoromethyl)phenyl)-2-((cis)-4-(6-fluoroquinolin-4-yl)cyclohexyl)propanamide]: less than 0.25 µM.

For `CCC(C(=O)Nc1ccc(Cl)cc1)[C@H]1CC[C@H](Oc2ccnc3c(C(F)(F)F)cccc23)CC1` (stereo partly drawn) [Example 86, N-(4-Chlorophenyl)-2-((trans)-4-((8-(trifluoromethyl)quinolin-4-yl)oxy)cyclohexyl)butanamide], the IC50 was less than 0.05 µM. Next, `O=C(CN1CCC(Oc2ccc3nccc(Cl)c3c2)CC1)Nc1ccc(Cl)cc1` [Example 90, N-(4-Chlorophenyl)-2-(4-((4-chloroquinolin-6-yl)oxy)piperidin-1-yl)acetamide]: more than 0.25 µM; `O=C(CN1CCC(Oc2ccnc3ccc(F)cc23)CC1)Nc1ccc(Cl)cc1` [Example 95, N-(4-Chlorophenyl)-2-(4-((6-fluoroquinolin-4-yl)oxy)piperidin-1-yl)acetamide]: less than 0.25 µM. In the case of `O=C(CC1CCN(Cc2ccnc3ccccc23)CC1)Nc1ccc(Cl)cc1` [Example 113, N-(4-Chlorophenyl)-2-(1-(quinolin-4-ylmethyl)piperidin-4-yl)acetamide], the IC50 is less than 0.05 µM.

Turning to `O=C(CC1CCN(Cc2ccnc3ccccc23)CC1)Nc1ccc(F)cc1` [Example 114, N-(4-Fluorophenyl)-2-(1-(quinolin-4-ylmethyl)piperidin-4-yl)acetamide], the IC50 is less than 0.25 µM. Next, `O=C(CC1CCN(c2ccnc3ccc(F)cc23)CC1)Nc1ccc(F)cc1` [Example 115, N-(4-Fluorophenyl)-2-(1-(6-fluoroquinolin-4-yl)piperidin-4-yl)acetamide]: more than 0.25 µM; `O=C(CC1CCN(c2ccnc3ccc(F)cc23)CC1)Nc1ccc(Cl)cc1` [Example 116]: more than 0.25 µM; `O=C(CC1CCN(c2ccnc3ccc(F)cc23)CC1)Nc1ccc(Br)cc1` [Example 117]: more than 0.25 µM. The figure for `Cc1ccc(NC(=O)CC2CCN(c3ccnc4ccc(F)cc34)CC2)c(F)c1` [Example 118] is more than 0.25 µM; for `Cc1cc(Cl)ccc1NC(=O)CC1CCN(c2ccnc3ccc(F)cc23)CC1` [Example 119] it is more than 0.25 µM. Next, `CC1(CC(=O)Nc2ccc(F)cc2)CCN(c2ccnc3ccc(F)cc23)CC1` [Example 120, N-(4-Fluorophenyl)-2-(1-(6-fluoroquinolin-4-yl)-4-methylpiperidin-4-yl)acetamide]: more than 0.25 µM; `Cc1ccc(NC(=O)CC2(C)CCN(c3ccnc4ccc(F)cc34)CC2)cc1` [Example 121]: more than 0.25 µM; `CC1(CC(=O)Nc2cncnc2)CCN(c2ccnc3ccc(F)cc23)CC1` [Example 122]: more than 0.25 µM. On to `CC1(CC(=O)Nc2ccc(Cl)cc2)CCN(c2ccnc3ccc(F)cc23)CC1` [Example 123], for which the IC50 is less than 0.05 µM. Next, `COc1ncc(NC(=O)CC2(C)CCN(c3ccnc4ccc(F)cc34)CC2)cn1` [Example 124]: more than 0.25 µM. On to `CCOc1ccc(NC(=O)CC2(C)CCN(c3ccnc4ccc(F)cc34)CC2)cc1` [Example 125], for which the IC50 is less than 0.25 µM. The figure for `CC(C(=O)O)c1ccc(C[C@@H](C(=O)Nc2ccc(C#N)cc2)[C@H]2CC[C@@H](c3ccnc4ccc(F)cc43)CC2)cc1` (stereo partly drawn) [Example 140, 2-(4-((R)-3-((4-Cyanophenyl)amino)-2-((cis)-4-(6-fluoroquinolin-4-yl)cyclohexyl)-3-oxopropyl)phenyl)propanoic Acid] is less than 0.05 µM; for `C[C@@H](C(=O)Nc1ccc(Cl)cc1O)[C@H]1CC[C@@H](c2ccnc3ccc(F)cc32)CC1` [Example 238, (R)-N-(4-chloro-2-hydroxyphenyl)-2-(cis-4-(6-fluoroquinolin-4-yl)cyclohexyl)propanamide] it is less than 0.05 µM.

Values taken from patent US20180282281A1, “IMMUNOREGULATORY AGENTS” (FLEXUS BIOSCIENCES, INC., priority 2014, published 2018).
